{"source": "ChEMBL document CHEMBL5380815", "about": "“Probing Ligand Binding Sites on Large Proteins by Nuclear Magnetic Resonance Spectroscopy of Genetically Encoded Non-Canonical Amino Acids” (J Med Chem, 2023)", "key": {"[1]": {"test_system": "Replicase polyprotein 1ab (Severe acute respiratory syndrome coronavirus 2), P0DTD1 [UNDEFINED MUTATION]", "assay": "Inhibition of recombinant SARS-COV2 main protease N142TMSK mutant expressed in Escherichia coli BL21 (DE3) using DABCYL-KTSAVLQSGFRKME-EDANS-NH2 as fluorogenic substrate at 5 to 50 uM preincubated for 10 mins followed by substrate addition by FRET assay", "conditions": "dose 5-50 µM"}, "[2]": {"test_system": "Replicase polyprotein 1ab (Severe acute respiratory syndrome coronavirus 2), P0DTD1 [UNDEFINED MUTATION]", "assay": "Inhibition of recombinant SARS-COV2 main protease L50TMSK mutant expressed in Escherichia coli BL21 (DE3) using DABCYL-KTSAVLQSGFRKME-EDANS-NH2 as fluorogenic substrate at 5 to 50 uM preincubated for 10 mins followed by substrate addition by FRET assay", "conditions": "dose 5-50 µM"}, "[3]": {"test_system": "Replicase polyprotein 1ab (Severe acute respiratory syndrome coronavirus 2), P0DTD1 [UNDEFINED MUTATION]", "assay": "Inhibition of recombinant SARS-COV2 main protease L232TMSK mutant expressed in Escherichia coli BL21 (DE3) using DABCYL-KTSAVLQSGFRKME-EDANS-NH2 as fluorogenic substrate at 5 to 50 uM preincubated for 10 mins followed by substrate addition by FRET assay", "conditions": "dose 5-50 µM"}, "[4]": {"test_system": "Replicase polyprotein 1ab (Severe acute respiratory syndrome coronavirus 2), P0DTD1 [UNDEFINED MUTATION]", "assay": "Inhibition of recombinant SARS-COV2 main protease V186TMSK mutant expressed in Escherichia coli BL21 (DE3) using DABCYL-KTSAVLQSGFRKME-EDANS-NH2 as fluorogenic substrate at 5 to 50 uM preincubated for 10 mins followed by substrate addition by FRET assay", "conditions": "dose 5-50 µM"}, "[5]": {"test_system": "Replicase polyprotein 1ab (Severe acute respiratory syndrome coronavirus 2), P0DTD1 [UNDEFINED MUTATION]", "assay": "Inhibition of recombinant SARS-COV2 main protease N72TMSK mutant expressed in Escherichia coli BL21 (DE3) using DABCYL-KTSAVLQSGFRKME-EDANS-NH2 as fluorogenic substrate at 5 to 50 uM preincubated for 10 mins followed by substrate addition by FRET assay", "conditions": "dose 5-50 µM"}, "[6]": {"test_system": "Replicase polyprotein 1ab (Severe acute respiratory syndrome coronavirus 2), P0DTD1 [UNDEFINED MUTATION]", "assay": "Inhibition of recombinant SARS-COV2 main protease A191TMSK mutant expressed in Escherichia coli BL21 (DE3) using DABCYL-KTSAVLQSGFRKME-EDANS-NH2 as fluorogenic substrate at 5 to 50 uM preincubated for 10 mins followed by substrate addition by FRET assay", "conditions": "dose 5-50 µM"}, "[7]": {"test_system": "Replicase polyprotein 1ab (Severe acute respiratory syndrome coronavirus 2), P0DTD1 [UNDEFINED MUTATION]", "assay": "Inhibition of recombinant SARS-COV2 main protease S46TMSK mutant expressed in Escherichia coli BL21 (DE3) using DABCYL-KTSAVLQSGFRKME-EDANS-NH2 as fluorogenic substrate at 5 to 50 uM preincubated for 10 mins followed by substrate addition by FRET assay", "conditions": "dose 5-50 µM"}, "[8]": {"test_system": "Replicase polyprotein 1ab (Severe acute respiratory syndrome coronavirus 2), P0DTD1 [UNDEFINED MUTATION]", "assay": "Inhibition of recombinant SARS-COV2 main protease A255TMSK mutant expressed in Escherichia coli BL21 (DE3) using DABCYL-KTSAVLQSGFRKME-EDANS-NH2 as fluorogenic substrate at 5 to 50 uM preincubated for 10 mins followed by substrate addition by FRET assay", "conditions": "dose 5-50 µM"}, "[9]": {"test_system": "Replicase polyprotein 1ab (Severe acute respiratory syndrome coronavirus 2), P0DTD1 [UNDEFINED MUTATION]", "assay": "Inhibition of recombinant SARS-COV2 main protease V186TMSK mutant expressed in Escherichia coli BL21 (DE3) using DABCYL-KTSAVLQSGFRKME-EDANS-NH2 as fluorogenic substrate at 16 to 1000 nM preincubated for 10 mins followed by substrate addition by FRET assay", "conditions": "dose 16-1000 nM"}, "[10]": {"test_system": "Replicase polyprotein 1ab (Severe acute respiratory syndrome coronavirus 2), P0DTD1 [UNDEFINED MUTATION]", "assay": "Inhibition of recombinant SARS-COV2 main protease A255TMSK mutant expressed in Escherichia coli BL21 (DE3) using DABCYL-KTSAVLQSGFRKME-EDANS-NH2 as fluorogenic substrate at 16 to 1000 nM preincubated for 10 mins followed by substrate addition by FRET assay", "conditions": "dose 16-1000 nM"}, "[11]": {"test_system": "Replicase polyprotein 1ab (Severe acute respiratory syndrome coronavirus 2), P0DTD1 [UNDEFINED MUTATION]", "assay": "Inhibition of recombinant SARS-COV2 main protease S46TMSK mutant expressed in Escherichia coli BL21 (DE3) using DABCYL-KTSAVLQSGFRKME-EDANS-NH2 as fluorogenic substrate at 16 to 1000 nM preincubated for 10 mins followed by substrate addition by FRET assay", "conditions": "dose 16-1000 nM"}, "[12]": {"test_system": "Replicase polyprotein 1ab (Severe acute respiratory syndrome coronavirus 2), P0DTD1 [UNDEFINED MUTATION]", "assay": "Inhibition of recombinant SARS-COV2 main protease N72TMSK mutant expressed in Escherichia coli BL21 (DE3) using DABCYL-KTSAVLQSGFRKME-EDANS-NH2 as fluorogenic substrate at 16 to 1000 nM preincubated for 10 mins followed by substrate addition by FRET assay", "conditions": "dose 16-1000 nM"}, "[13]": {"test_system": "Replicase polyprotein 1ab (Severe acute respiratory syndrome coronavirus 2), P0DTD1 [UNDEFINED MUTATION]", "assay": "Inhibition of recombinant SARS-COV2 main protease N142TMSK mutant expressed in Escherichia coli BL21 (DE3) using DABCYL-KTSAVLQSGFRKME-EDANS-NH2 as fluorogenic substrate at 16 to 1000 nM preincubated for 10 mins followed by substrate addition by FRET assay", "conditions": "dose 16-1000 nM"}, "[14]": {"test_system": "Replicase polyprotein 1ab (Severe acute respiratory syndrome coronavirus 2), P0DTD1 [N72A]", "assay": "Inhibition of recombinant SARS-COV2 main protease N72A mutant expressed in Escherichia coli BL21 (DE3) using DABCYL-KTSAVLQSGFRKME-EDANS-NH2 as fluorogenic substrate at 16 to 100 nM preincubated for 10 mins followed by substrate addition by FRET assay", "conditions": "dose 16-100 nM"}, "[15]": {"test_system": "Replicase polyprotein 1ab (Severe acute respiratory syndrome coronavirus 2), P0DTD1 [V186A]", "assay": "Inhibition of recombinant SARS-COV2 main protease V186A mutant expressed in Escherichia coli BL21 (DE3) using DABCYL-KTSAVLQSGFRKME-EDANS-NH2 as fluorogenic substrate at 16 to 100 nM preincubated for 10 mins followed by substrate addition by FRET assay", "conditions": "dose 16-100 nM"}, "[16]": {"test_system": "Replicase polyprotein 1ab (Severe acute respiratory syndrome coronavirus 2), P0DTD1 [UNDEFINED MUTATION]", "assay": "Inhibition of recombinant SARS-COV2 main protease L50TMSK mutant expressed in Escherichia coli BL21 (DE3) using DABCYL-KTSAVLQSGFRKME-EDANS-NH2 as fluorogenic substrate at 16 to 1000 nM preincubated for 10 mins followed by substrate addition by FRET assay", "conditions": "dose 16-1000 nM"}, "[17]": {"test_system": "Replicase polyprotein 1ab (Severe acute respiratory syndrome coronavirus 2), P0DTD1 [S46A]", "assay": "Inhibition of recombinant SARS-COV2 main protease S46A mutant expressed in Escherichia coli BL21 (DE3) using DABCYL-KTSAVLQSGFRKME-EDANS-NH2 as fluorogenic substrate at 16 to 100 nM preincubated for 10 mins followed by substrate addition by FRET assay", "conditions": "dose 16-100 nM"}, "[18]": {"test_system": "Replicase polyprotein 1ab (Severe acute respiratory syndrome coronavirus 2), P0DTD1 [N142L]", "assay": "Inhibition of SARS-COV2 main protease N142L mutant assessed as fold increase in IC50"}, "[19]": {"test_system": "Replicase polyprotein 1ab (Severe acute respiratory syndrome coronavirus 2), P0DTD1 [L50A]", "assay": "Inhibition of recombinant SARS-COV2 main protease L50A mutant expressed in Escherichia coli BL21 (DE3) using DABCYL-KTSAVLQSGFRKME-EDANS-NH2 as fluorogenic substrate at 16 to 100 nM preincubated for 10 mins followed by substrate addition by FRET assay", "conditions": "dose 16-100 nM"}, "[20]": {"test_system": "Replicase polyprotein 1ab (Severe acute respiratory syndrome coronavirus 2), P0DTD1 [N142A]", "assay": "Inhibition of recombinant SARS-COV2 main protease N142A mutant expressed in Escherichia coli BL21 (DE3) using DABCYL-KTSAVLQSGFRKME-EDANS-NH2 as fluorogenic substrate at 16 to 100 nM preincubated for 10 mins followed by substrate addition by FRET assay", "conditions": "dose 16-100 nM"}, "[21]": {"test_system": "Replicase polyprotein 1ab (Severe acute respiratory syndrome coronavirus 2), P0DTD1 [UNDEFINED MUTATION]", "assay": "Activation of recombinant SARS-COV2 main protease I213TFAK mutant expressed in Escherichia coli BL21 (DE3) using DABCYL-KTSAVLQSGFRKME-EDANS-NH2 as fluorogenic substrate at 15 uM preincubated for 10 mins followed by substrate addition by FRET assay", "conditions": "filed as activator"}, "[22]": {"test_system": "Replicase polyprotein 1ab (Severe acute respiratory syndrome coronavirus 2), P0DTD1 [UNDEFINED MUTATION]", "assay": "Activation of recombinant SARS-COV2 main protease V297TMSK mutant expressed in Escherichia coli BL21 (DE3) using DABCYL-KTSAVLQSGFRKME-EDANS-NH2 as fluorogenic substrate at 1.5 to 50 uM preincubated for 10 mins followed by substrate addition by FRET assay", "conditions": "filed as activator, dose 1.5-50 µM"}, "[23]": {"test_system": "Replicase polyprotein 1ab (Severe acute respiratory syndrome coronavirus 2), P0DTD1 [UNDEFINED MUTATION]", "assay": "Activation of recombinant SARS-COV2 main protease I213TMSK mutant expressed in Escherichia coli BL21 (DE3) using DABCYL-KTSAVLQSGFRKME-EDANS-NH2 as fluorogenic substrate at 15 uM preincubated for 10 mins followed by substrate addition by FRET assay", "conditions": "filed as activator"}, "[24]": {"test_system": "Replicase polyprotein 1ab (Severe acute respiratory syndrome coronavirus 2), P0DTD1 [UNDEFINED MUTATION]", "assay": "Activation of recombinant SARS-COV2 main protease V297TFAK mutant expressed in Escherichia coli BL21 (DE3) using DABCYL-KTSAVLQSGFRKME-EDANS-NH2 as fluorogenic substrate at 1.5 to 50 uM preincubated for 10 mins followed by substrate addition by FRET assay", "conditions": "filed as activator, dose 1.5-50 µM"}}, "note": "Active and inactive are the calls of the source. No cut-off for these calls is given here."}
{"smiles": "CCCC[C@@H](C=O)NC(=O)[C@H](CC(C)C)NC(=O)OCc1ccccc1", "values": [{"measurement": "inhibition", "setting": "[1]", "result": "Dose-Dependent Effect"}, {"measurement": "inhibition", "setting": "[2]", "result": "Dose-Dependent Effect"}, {"measurement": "inhibition", "setting": "[3]", "result": "Dose-Dependent Effect"}, {"measurement": "inhibition", "setting": "[4]", "result": "Dose-Dependent Effect"}, {"measurement": "inhibition", "setting": "[5]", "result": "Dose-Dependent Effect"}, {"measurement": "inhibition", "setting": "[6]", "result": "Dose-Dependent Effect"}, {"measurement": "inhibition", "setting": "[7]", "result": "Dose-Dependent Effect"}, {"measurement": "inhibition", "setting": "[8]", "result": "Dose-Dependent Effect"}]}
{"smiles": "CC(=O)[C@@H]1CSCC(=O)N[C@H](Cc2ccc(O)cc2)C(=O)N[C@@H](CC(C)C)C(=O)N[C@@H](CCC(N)=O)C(=O)N[C@@H](Cc2ccc(O)cc2)C(=O)N[C@@H](C)C(=O)N[C@@H](C(C)C)C(=O)N[C@@H](CC(C)C)C(=O)N[C@@H](CCCNC(=N)N)C(=O)N[C@@H](Cc2c[nH]cn2)C(=O)N[C@@H](CCCCN)C(=O)N[C@@H](CCCNC(=N)N)C(=O)N[C@@H](CCCNC(=N)N)C(=O)N[C@@H](CCC(=O)O)C(=O)C1", "values": [{"measurement": "inhibition", "setting": "[9]", "result": "Dose-Dependent Effect"}, {"measurement": "inhibition", "setting": "[10]", "result": "Dose-Dependent Effect"}, {"measurement": "inhibition", "setting": "[11]", "result": "Dose-Dependent Effect"}, {"measurement": "inhibition", "setting": "[12]", "result": "Dose-Dependent Effect"}, {"measurement": "inhibition", "setting": "[13]", "result": "Dose-Dependent Effect"}, {"measurement": "inhibition", "setting": "[14]", "result": "Dose-Dependent Effect"}, {"measurement": "inhibition", "setting": "[15]", "result": "Dose-Dependent Effect"}, {"measurement": "inhibition", "setting": "[16]", "result": "Dose-Dependent Effect"}, {"measurement": "inhibition", "setting": "[17]", "result": "Dose-Dependent Effect"}, {"measurement": "fold change (FC)", "setting": "[18]", "result": 5}, {"measurement": "inhibition", "setting": "[19]", "result": "Dose-Dependent Effect"}, {"measurement": "inhibition", "setting": "[20]", "result": "Dose-Dependent Effect"}]}
{"smiles": "CCOc1cc2ncc(C#N)c(Nc3ccc(F)c(Cl)c3)c2cc1NC(=O)/C=C/CN(C)C", "note": "[PELITINIB]", "values": [{"measurement": "Activity", "setting": "[21]", "result": "Active"}, {"measurement": "Activity", "setting": "[22]", "result": "Dose-Dependent Effect"}, {"measurement": "Activity", "setting": "[23]", "result": "Active"}, {"measurement": "Activity", "setting": "[24]", "result": "Dose-Dependent Effect"}]}
